# Assay results reported in PubChem BioAssay AID1963952 (Xavier Lab, Infectious Disease and Microbiome Program, …, 2024).
# The source made the active and inactive calls. How the calls were made is not given here.
# Biological target: Peptidyl-prolyl cis-trans isomerase FKBP1A (Homo sapiens) (UniProt P62942)
# Assay: ligand binding to FKBP1A protein – biochemical, TR-FRET, dose response (AID 1963952)
# Conditions: FKBP12 binding
# Peptidyl-prolyl cis-trans isomerase FKBP1A (Homo sapiens), sequence (P62942 whole entry, looked up): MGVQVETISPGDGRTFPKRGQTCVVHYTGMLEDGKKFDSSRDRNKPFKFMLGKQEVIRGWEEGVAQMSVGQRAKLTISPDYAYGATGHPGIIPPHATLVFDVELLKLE
EC50,outcome,Compound
18.4 µM,–,CCC(C)(C)C(=O)C(=O)N1CCCC[C@H]1C(=O)N[C@H](CCc1ccc(OC)cc1)C(=O)N1[C@@H]2CC[C@H]1CC(Nc1nc(NCCc3sc(N)nc3C)nc(NCCn3cnc4ccccc43)n1)C2 (stereo not given in full)
17.1 µM,–,CCC(C)(C)C(=O)C(=O)N1CCCC[C@H]1C(=O)O[C@H](CCc1ccccc1)C(=O)N1[C@@H]2CC[C@H]1CC(Nc1nc(NCCc3sc(N)nc3C)nc(N3CCn4ncnc4C3)n1)C2 (stereo not given in full)
17.9 µM,–,CCC(C)(C)C(=O)C(=O)N1CCCC[C@H]1C(=O)N[C@H](CCc1ccc(OC)cc1)C(=O)N1[C@@H]2CC[C@H]1CC(Nc1nc(NCCc3sc(N)nc3C)nc(N(C)Cc3nnc4n3CCC4)n1)C2 (stereo not given in full)
–,inactive,CC(=O)N1[C@@H]2CC[C@H]1CC(Nc1nc(NCCc3sc(N)nc3C)nc(N3CCn4ncnc4C3)n1)C2 (stereo not given in full)
29.5 µM,–,CCC(C)(C)C(=O)C(=O)N1CCCC[C@H]1C(=O)N[C@H](CCc1ccc(OC)cc1)C(=O)N1[C@@H]2CC[C@H]1CC(Nc1nc(NCCc3sc(N)nc3C)nc(N3CCn4ncnc4C3)n1)C2 (stereo not given in full)
35 µM,–,CCC(C)(C)C(=O)C(=O)N1CCCC[C@H]1C(=O)N[C@H](CCc1ccc(OC)cc1)C(=O)N1CC(Nc2nc(NCCc3sc(N)nc3C)nc(NCCn3cnc4ccccc43)n2)C1
28.9 µM,–,CCC(C)(C)C(=O)C(=O)N1CCCC[C@H]1C(=O)N[C@H](CCc1ccc(OC)cc1)C(=O)N1[C@@H]2CC[C@H]1CC(NC(C)=O)C2 (stereo not given in full)
36 µM,–,CCC(C)(C)C(=O)C(=O)N1CCCC[C@H]1C(=O)N[C@H](CCc1ccc(OC)cc1)C(=O)N1[C@@H]2CC[C@H]1CC(Nc1nc(NCCc3ccccc3)nc(N3CCn4ncnc4C3)n1)C2 (stereo not given in full)
36.8 µM,–,CCC(C)(C)C(=O)C(=O)N1CCCC[C@H]1C(=O)N[C@H](CCc1ccc(OC)cc1)C(=O)N1[C@@H]2CC[C@H]1CC(Nc1nc(NCCc3sc(N)nc3C)nc(NCc3ccnc(CO)c3)n1)C2 (stereo not given in full)
13.3 µM,–,CCC(C)(C)C(=O)C(=O)N1CCCC[C@H]1C(=O)N[C@H](CCc1ccc(OC)cc1)C(=O)N1CC[C@H](Nc2nc(NCCc3sc(N)nc3C)nc(N(C)Cc3nnc4n3CCC4)n2)C1
